Active and inactive are the calls of the source.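 How the source made its calls: active means fitted concentration giving half of the maximal binding block below 66 µM; inactive means the rest.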
What follows are molecules tested against anti-desmoglein 3 scFv antibody binding to human desmoglein 3 (DSG3) (assay: blockers of pemphigus antibody–desmoglein 3 interaction – biochemical, DSG3-coupled beads, scFv-GFP, flow cytometry, Cherry Pick 1, dose response (AID 602251)). Settings: at 66.1 µM (top of the series).

Binding response, lower = inhibition, inactive:
O=C(Nc1cc(Cl)ccc1Cl)c1ccc(OC(=O)c2ccco2)cc1, COc1ccc2cc(C#N)c(SCC(=O)N3CC(=O)Nc4ccccc43)nc2c1, N=c1oc2ccc3ccccc3c2cc1C(N)=S, O=C(Nc1ccc(NS(=O)(=O)c2ccccc2)cc1)c1ccc(Cl)cc1, O=C(COc1cccnc1[N+](=O)[O-])Nc1cc(S(=O)(=O)N2CCCCC2)ccc1Cl, Cc1c([N+](=O)[O-])cc(C(=O)Nc2ccc(NC(=O)c3ccco3)cc2)cc1[N+](=O)[O-], COc1ccc(NC(=O)Cn2nnc(C(=O)NCc3ccccc3)c2N)cc1Cl, COc1ccc(-c2cc(=O)oc3cc(OCC(=O)Nc4ccccn4)ccc23)cc1, CC(=O)c1ccc(NC(=O)CSc2ccsc2[N+](=O)[O-])cc1, Cc1ccc(O)c(NC(=O)c2ccc3c(c2)C(=O)N(Cc2cccnc2)C3=O)c1, CCCCN1C=C(C(=O)OC)C(c2ccccc2C(F)(F)F)C(C(=O)OC)=C1, CCCNC(=O)c1c(N)n(-c2ccc(S(N)(=O)=O)cc2)c2nc3ccccc3nc12, COc1cc2sc3ccc(C#Cc4ccccn4)cc3c(=O)c2cc1OC, COC(=O)c1cc(/C=C/c2ccccc2)on1, O=C(CSc1nnc(Cc2ccccc2)o1)N1CCc2ccccc21, C=CCSc1nc(N)c(C(=O)Nc2ccccc2)cc1C#N, O=C(Nc1ccc(-c2cn3c(n2)SCC3)cc1)c1ccc2c(c1)OCO2, O=C(Nc1cccc([N+](=O)[O-])c1)c1ccc(CSc2ccccc2)cc1, O=C(Nc1ccc(Nc2ccccc2)cc1)c1ccc(Br)cc1, CCOc1ccccc1NCc1cc(=O)oc2cc(C)c(O)cc12, COc1ccc(OC)c(NC(=O)c2nc(-c3ccccc3)oc2C)c1, O=C(Cc1ccccc1)Nc1ccc(NC(=O)c2cccs2)cc1Cl, COc1ccccc1C(=O)Nc1ccc(Oc2ncnc3sc(-c4ccccc4)cc23)cc1, O=C(Nc1cccc2ccccc12)N1CCN(c2ccccc2)CC1, COc1ccc(NC(=O)c2ccc3c(c2)C(=O)N(Cc2cccnc2)C3=O)cc1, O=C(COC(=O)c1ccc(S(=O)(=O)N2CCc3ccccc3C2)cc1)NC1CCS(=O)(=O)C1 (stereo unspecified), OCc1cn(-c2ccccc2)nc1-c1ccc(-c2nn(-c3ccccc3)cc2CO)cc1, Nc1c(C(=O)c2ccccc2)oc2ccc([N+](=O)[O-])cc12, NS(=O)(=O)c1ccc(-c2ccc(/C=C3\SC(=S)N(C4CCS(=O)(=O)C4)C3=O)o2)cc1 (stereo unspecified), Cc1c(OCC(=O)NCc2ccccn2)ccc2c(-c3ccccc3)cc(=O)oc12, O=C(NCc1ccccc1)c1ccc(C(=O)NCc2ccccc2)cc1, Cc1nnc2ccc(-c3ccc(NS(=O)(=O)c4ccccc4)cc3)nn12, O=C(NCCCN1CCOCC1)c1cc(-c2cccc(Br)c2)nc2ccccc12, COc1ccccc1CNC(=O)COC(=O)c1ccc(S(=O)(=O)N2CCCC2)cc1, CCOC(=O)c1cc(-c2ccc(/C=C3/C(=O)N(c4ccc(C(=O)O)cc4)N=C3C)o2)ccc1Cl, Cc1ccc(NC(=O)c2sc(N)nc2-c2ccc([N+](=O)[O-])cc2)cc1C, Cc1ccc2nc(NC(=O)c3ccc4ncsc4c3)sc2c1, Cc1ccc(-n2ncc3c(=O)[nH]c(SCC(=O)N4CCN(c5ccccc5)CC4)nc32)cc1, O=C(NC1CCCC1)C(c1ccc(O)cc1)N(CC1CCCO1)C(=O)C1COc2ccccc2O1 (stereo unspecified), O=C1c2ccc(-c3ccc(F)cc3OCc3ccccc3)cc2S(=O)(=O)c2cccc(C(=O)N3CCN(c4ncc(Br)cn4)CC3)c21, CC(C)OC(=O)CSc1nc2c(cc1C#N)CCCCC2, COc1ccc(NC(=O)c2ccc3c(c2)S(=O)(=O)c2ccccc2C3=O)cc1, CCC(C)n1cnc2c(c1=O)c1nc3ccccc3nc1n2-c1ccc2c(c1)OCCO2 (stereo unspecified), CCOc1ccc(-n2nc3ccc(NC(=O)c4ccc5c(c4)OCCO5)cc3n2)cc1, CCOC(=O)N1CCC(NC(=O)c2cc3c(-c4ccccc4F)nn(C)c3s2)CC1, COc1ccccc1-n1cnc2c(c1=O)c1nc3ccccc3nc1n2-c1ccc(C)c(C)c1

From PubChem BioAssay AID602251 (NMMLSC, 2012)
